Results as given in patent US9777021B2, “Lubricant additives” (Qatar Foundation, priority 2016, dated 2017).

Assays:
[1] = Wear analysis by white light interferometry of wear scars; conditions: disks of temperature ramp tests
Method: After friction tests were completed, the disks were sonicated in a hexane bath to remove oil residue. The volume of the wear scar was measured using a Zygo NewView 7100 white light interferometer. The wear volume and material buildup around the wear scar were used to calculate the wear rate, which is defined as the volume removed per unit load per sliding distance. Each additive concentration in oil was tested twice for friction and wear performance. Energy-dispersive X-ray spectroscopy (EDS) on Hitachi S4800-II and Hitachi SU8030 Scanning Electron Microscopes (SEMs) was used to examine the morphology of the disk surface and deposited silver content.
The disks used in the temperature ramp tests (FIG. 8) were next analyzed by white light interferometry to determine the volume of the wear scars and the material buildup outside of the scar. The volume of material removed was normalized for load and the distance traveled during the test. […] The trend in wear rate is similar to the trend in COF (FIG. 7), with a 2.5 wt % loading producing the lowest amounts of wear. […] It is hypothesized that the increase in efficiency of additive 1 is attributable to the increased number of silver atoms/molecule and improved solubility in oil, which enables better dispersion of the additive in base oil.

[2] = Temperature-ramped pin-on-disk (ball-on-disk) tribometry, friction (COF); conditions: for friction reduction: temperature ramp 180 to 350° C. over 30 min
Method: (§1) Silver complex 1 was combined with PAO4 and 15W40 military-grade engine oil (FF oil). The complex was dissolved in the minimal amount of hexane (1 mL per 1 g silver complex) and then added to the oil to achieve complex concentrations of 1.0, 2.5 and 5.0 wt %. Before testing, the oil-silver complex mixtures were stirred with a magnetic stir bar for 30 minutes to ensure a homogeneous dispersion.
Table 1 outlines the experimental conditions used in this study. A ball bearing made of M50 bearing steel with 62 HRC hardness and a diameter of 4 mm is used to apply a vertical load to a 52100 steel disk with 50 HRC hardness and a diameter to 3″ as the disk rotates. The surface of the disk is coated with a 2 mL solution of 1 in the desired base oil. The sliding test conditions for all the experiments were: Normal load=25 N, sliding velocity=200 rpm. In the temperature ramp experiments, the temperature is increased from 180-350° C. over 30 min in order to detect any change in frictional characteristics as the oil degrades, and partially evaporates, and once the metallic Ag is deposited.
Silver complex 1 was added to oil at 0.0, 1.0, 2.5, and 5 wt % loadings. A minimal amount of hexanes was added to aid in solubilizing the complex (1 mL hexanes/g of complex) before mixing with oil. The oils used are PAO4, a base oil with no additives, and a military-grade 15W40 oil, which is fully formulated (FF) but contains no silver-containing additives (confirmed by elemental analysis).

Solubility in base oil = type: physicochemical
Method: as §1
Solubility in base oil is an important property for tribologically promising high temperature additives, and is something that challenged previous generations of silver-organic additives.
Silver complex 1 was added to oil at 0.0, 1.0, 2.5, and 5 wt % loadings. A minimal amount of hexanes was added to aid in solubilizing the complex (1 mL hexanes/g of complex) before mixing with oil.

## CCCCCCc1c(C)n[n-]c1C.[Ag+] [Compound 1, Ag(3,5-dimethyl-4-n-hexyl-pyrazole)]
[1]; 2.5 wt % loading in 15W40
  wear reduction: 70%
[1]; 2.5 wt % loading in PAO4
  wear reduction: 60%
[2]; 2.5 wt % loading in 15W40
  friction reduction: 30%
[2]; 2.5 wt % loading in PAO4
  friction reduction: 20%
[2]; 2.5 wt % loading in either base oil (PAO4, 15W40), temperature ramp 180 to 350° C.
  COF behaviour as the oil begins to degrade above ~275° C.: the COF does not increase
Solubility in base oil; 5 wt % loading, gentle heating at 40° C.
  solubility in PAO4: homogeneous solution
Solubility in base oil; cloudy suspension at room temperature, heating to 40° C. and magnetic stirring, 1 mL hexanes/g of complex
  solubility in oil (PAO4 or 15W40): dissolves fully
